Laboratory results published in patent US9833497B2, “Human originated EGF domain proteins and use of the same” (CHENGDU SOURCEBIO LIMITED-LIABILITY COMPANY, priority 2013, dated 2017).

test system: E. coli BL21; assay: MIC against Gram-negative bacteria: E. coli BL21; type: cell-based; conditions: 10 h cultivation at 37° C., 5×10^5 CFU/mL, two-fold serial dilution
How it was run: (§1)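 Antibacterial activity of purified human EGF domain proteins: two-fold concentration series, triplicate wells, LB broth, 5×10^5 CFU/mL bacteria, 37° C shaking incubation. The lowest concentration without growth defines the MIC.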

| Substance | MIC E. coli BL21 [µg/mL] |
| --- | --- |
| PRT1068 (DINECLRFGTCSQLCNNTKGGHLCSCARNFMKTHNTCK; listed as Homo sapiens) | 50 |
| PRT1161 (DIDECASHPCKNGATCIDQPGNYFCQCVPPFKVVDGFSCL; listed as Homo sapiens) | 12.5 |

same assay, conditions: E. coli BL21; 96-well plate, 5×10^5 CFU/mL, 37° C., 10 h

| Substance | MIC against E. coli BL21 [µg/mL] | MIC (μg/mL) E. coli BL21 [µg/mL] |
| --- | --- | --- |
| PRT1272 (DVDECVEGTDNCHIDAICQNTPRSYKCICKSGYTGDGKHCK; listed as Homo sapiens) | 50 | – |
| PRT67 (EIDLCYSDPCGANGRCRSREGGYTCECFEDFTGEHCE; listed as Homo sapiens) | – | 50 |

test system: Proteus vulgaris; assay: MIC against Gram-negative bacteria: Proteus vulgaris; type: cell-based; conditions: 10 h cultivation at 37° C., 5×10^5 CFU/mL, two-fold serial dilution
How it was run: as §1

| Substance | MIC P. vulgaris [µg/mL] |
| --- | --- |
| PRT1068 (DINECLRFGTCSQLCNNTKGGHLCSCARNFMKTHNTCK; listed as Homo sapiens) | 50 |
| PRT1161 (DIDECASHPCKNGATCIDQPGNYFCQCVPPFKVVDGFSCL; listed as Homo sapiens) | 25 |

same assay, conditions: Proteus vulgaris; 96-well plate, 5×10^5 CFU/mL, 37° C., 10 h

| Substance | MIC against P. vulgaris [µg/mL] | MIC (μg/mL) P. vulgaris [µg/mL] |
| --- | --- | --- |
| PRT1272 (DVDECVEGTDNCHIDAICQNTPRSYKCICKSGYTGDGKHCK; listed as Homo sapiens) | 12.5 | – |
| PRT67 (EIDLCYSDPCGANGRCRSREGGYTCECFEDFTGEHCE; listed as Homo sapiens) | – | 12.5 |

test system: Aeromonas hydrophila; assay: MIC against Gram-negative bacteria: Aeromonas hydrophila; type: cell-based; conditions: 10 h cultivation at 37° C., 5×10^5 CFU/mL, two-fold serial dilution
How it was run: as §1

| Substance | MIC A. hydrophila [µg/mL] |
| --- | --- |
| PRT1068 (DINECLRFGTCSQLCNNTKGGHLCSCARNFMKTHNTCK; listed as Homo sapiens) | 50 |
| PRT1161 (DIDECASHPCKNGATCIDQPGNYFCQCVPPFKVVDGFSCL; listed as Homo sapiens) | 25 |

same assay, conditions: Aeromonas hydrophila; 96-well plate, 5×10^5 CFU/mL, 37° C., 10 h

| Substance | MIC against A. hydrophila [µg/mL] | MIC (μg/mL) A. hydrophila [µg/mL] |
| --- | --- | --- |
| PRT1272 (DVDECVEGTDNCHIDAICQNTPRSYKCICKSGYTGDGKHCK; listed as Homo sapiens) | 12.5 | – |
| PRT67 (EIDLCYSDPCGANGRCRSREGGYTCECFEDFTGEHCE; listed as Homo sapiens) | – | 25 |

test system: Pseudomonas aeruginosa; assay: MIC against Gram-negative bacteria: Pseudomonas aeruginosa; type: cell-based; conditions: 10 h cultivation at 37° C., 5×10^5 CFU/mL, two-fold serial dilution
How it was run: as §1

| Substance | MIC P. aeruginosa [µg/mL] |
| --- | --- |
| PRT1068 (DINECLRFGTCSQLCNNTKGGHLCSCARNFMKTHNTCK; listed as Homo sapiens) | 25 |
| PRT1161 (DIDECASHPCKNGATCIDQPGNYFCQCVPPFKVVDGFSCL; listed as Homo sapiens) | 12.5 |

same assay, conditions: Pseudomonas aeruginosa; 96-well plate, 5×10^5 CFU/mL, 37° C., 10 h

| Substance | MIC against P. aeruginosa [µg/mL] | MIC (μg/mL) P. aeruginosa [µg/mL] |
| --- | --- | --- |
| PRT1272 (DVDECVEGTDNCHIDAICQNTPRSYKCICKSGYTGDGKHCK; listed as Homo sapiens) | 100 | – |
| PRT67 (EIDLCYSDPCGANGRCRSREGGYTCECFEDFTGEHCE; listed as Homo sapiens) | – | 12.5 |

test system: Klebsiella pneumonia; assay: MIC against Gram-negative bacteria: Klebsiella pneumonia; type: cell-based; conditions: 10 h cultivation at 37° C., 5×10^5 CFU/mL, two-fold serial dilution
How it was run: as §1

| Substance | MIC K. pneumonia [µg/mL] |
| --- | --- |
| PRT1068 (DINECLRFGTCSQLCNNTKGGHLCSCARNFMKTHNTCK; listed as Homo sapiens) | 12.5 |
| PRT1161 (DIDECASHPCKNGATCIDQPGNYFCQCVPPFKVVDGFSCL; listed as Homo sapiens) | 12.5 |

same assay, conditions: Klebsiella pneumonia; 96-well plate, 5×10^5 CFU/mL, 37° C., 10 h

| Substance | MIC against K. pneumonia [µg/mL] | MIC (μg/mL) K. pneumonia [µg/mL] |
| --- | --- | --- |
| PRT1272 (DVDECVEGTDNCHIDAICQNTPRSYKCICKSGYTGDGKHCK; listed as Homo sapiens) | 50 | – |
| PRT67 (EIDLCYSDPCGANGRCRSREGGYTCECFEDFTGEHCE; listed as Homo sapiens) | – | 25 |

test system: Serratia marcescens; assay: MIC against Gram-negative bacteria: Serratia marcescens; type: cell-based; conditions: 10 h cultivation at 37° C., 5×10^5 CFU/mL, two-fold serial dilution
How it was run: as §1

| Substance | MIC S. marcescens [µg/mL] |
| --- | --- |
| PRT1068 (DINECLRFGTCSQLCNNTKGGHLCSCARNFMKTHNTCK; listed as Homo sapiens) | 25 |
| PRT1161 (DIDECASHPCKNGATCIDQPGNYFCQCVPPFKVVDGFSCL; listed as Homo sapiens) | 50 |

same assay, conditions: Serratia marcescens; 96-well plate, 5×10^5 CFU/mL, 37° C., 10 h

| Substance | MIC against S. marcescens [µg/mL] | MIC (μg/mL) S. marcescens [µg/mL] |
| --- | --- | --- |
| PRT1272 (DVDECVEGTDNCHIDAICQNTPRSYKCICKSGYTGDGKHCK; listed as Homo sapiens) | 50 | – |
| PRT67 (EIDLCYSDPCGANGRCRSREGGYTCECFEDFTGEHCE; listed as Homo sapiens) | – | 50 |

test system: Enterobacter cloacae; assay: MIC against Gram-negative bacteria: Enterobacter cloacae; type: cell-based; conditions: 10 h cultivation at 37° C., 5×10^5 CFU/mL, two-fold serial dilution
How it was run: as §1

| Substance | MIC E. cloacae [µg/mL] |
| --- | --- |
| PRT1068 (DINECLRFGTCSQLCNNTKGGHLCSCARNFMKTHNTCK; listed as Homo sapiens) | 25 |
| PRT1161 (DIDECASHPCKNGATCIDQPGNYFCQCVPPFKVVDGFSCL; listed as Homo sapiens) | 25 |

same assay, conditions: Enterobacter cloacae; 96-well plate, 5×10^5 CFU/mL, 37° C., 10 h

| Substance | MIC against E. cloacae [µg/mL] | MIC (μg/mL) E. cloacae [µg/mL] |
| --- | --- | --- |
| PRT1272 (DVDECVEGTDNCHIDAICQNTPRSYKCICKSGYTGDGKHCK; listed as Homo sapiens) | 25 | – |
| PRT67 (EIDLCYSDPCGANGRCRSREGGYTCECFEDFTGEHCE; listed as Homo sapiens) | – | 50 |

test system: Proteus mirabilis; assay: MIC against Gram-negative bacteria: Proteus mirabilis; type: cell-based; conditions: 10 h cultivation at 37° C., 5×10^5 CFU/mL, two-fold serial dilution
How it was run: as §1

| Substance | MIC P. mirabilis [µg/mL] |
| --- | --- |
| PRT1068 (DINECLRFGTCSQLCNNTKGGHLCSCARNFMKTHNTCK; listed as Homo sapiens) | 25 |
| PRT1161 (DIDECASHPCKNGATCIDQPGNYFCQCVPPFKVVDGFSCL; listed as Homo sapiens) | 12.5 |

same assay, conditions: Proteus mirabilis; 96-well plate, 5×10^5 CFU/mL, 37° C., 10 h

| Substance | MIC against P. mirabilis [µg/mL] | MIC (μg/mL) P. mirabilis [µg/mL] |
| --- | --- | --- |
| PRT1272 (DVDECVEGTDNCHIDAICQNTPRSYKCICKSGYTGDGKHCK; listed as Homo sapiens) | 50 | – |
| PRT67 (EIDLCYSDPCGANGRCRSREGGYTCECFEDFTGEHCE; listed as Homo sapiens) | – | 50 |

test system: E. coli DH5α; assay: Antibacterial activity: MIC and growth curve against E. coli DH5α in 96-well plate; type: cell-based; conditions: minimal inhibitory concentration against E. coli DH5α; 96-well plate, 5×10^5 CFU/mL, 37° C., judged after 8 h
How it was run: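 Log-phase bacteria (OD600 ~0.5) resuspended in LB at 5×10^5 CFU/mL, exposed to recombinant protein at 50, 25, 12.5 μg/mL final in triplicate, 37 °C shaking at 175 rpm. OD600 read every 30 min; MIC is lowest concentration showing no growth.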

| Substance | MIC [µg/mL] |
| --- | --- |
| PRT1068 (DINECLRFGTCSQLCNNTKGGHLCSCARNFMKTHNTCK; listed as Homo sapiens) | 12.5 |
| PRT1272 (DVDECVEGTDNCHIDAICQNTPRSYKCICKSGYTGDGKHCK; listed as Homo sapiens) | 25 |
| PRT67 (EIDLCYSDPCGANGRCRSREGGYTCECFEDFTGEHCE; listed as Homo sapiens) | 12.5 |
| PRT1161 (DIDECASHPCKNGATCIDQPGNYFCQCVPPFKVVDGFSCL; listed as Homo sapiens) | 25 |

test system: Moraxella catarrhalis; assay: MIC against Gram-negative bacteria: Moraxella catarrhalis; type: cell-based; conditions: 10 h cultivation at 37° C., 5×10^5 CFU/mL, two-fold serial dilution
How it was run: as §1

| Substance | MIC M. catarrhalis [µg/mL] |
| --- | --- |
| PRT1068 (DINECLRFGTCSQLCNNTKGGHLCSCARNFMKTHNTCK; listed as Homo sapiens) | 12.5 |
| PRT1161 (DIDECASHPCKNGATCIDQPGNYFCQCVPPFKVVDGFSCL; listed as Homo sapiens) | 25 |

same assay, conditions: Moraxella catarrhalis; 96-well plate, 5×10^5 CFU/mL, 37° C., 10 h

| Substance | MIC against M. catarrhalis [µg/mL] | MIC (μg/mL) M. catarrhalis [µg/mL] |
| --- | --- | --- |
| PRT1272 (DVDECVEGTDNCHIDAICQNTPRSYKCICKSGYTGDGKHCK; listed as Homo sapiens) | 12.5 | – |
| PRT67 (EIDLCYSDPCGANGRCRSREGGYTCECFEDFTGEHCE; listed as Homo sapiens) | – | 25 |

test system: Citrobacter diversus; assay: MIC against Gram-negative bacteria: Citrobacter diversus; type: cell-based; conditions: 10 h cultivation at 37° C., 5×10^5 CFU/mL, two-fold serial dilution
How it was run: as §1

| Substance | MIC C. diversus [µg/mL] |
| --- | --- |
| PRT1068 (DINECLRFGTCSQLCNNTKGGHLCSCARNFMKTHNTCK; listed as Homo sapiens) | 25 |
| PRT1161 (DIDECASHPCKNGATCIDQPGNYFCQCVPPFKVVDGFSCL; listed as Homo sapiens) | 50 |

same assay, conditions: Citrobacter diversus; 96-well plate, 5×10^5 CFU/mL, 37° C., 10 h

| Substance | MIC against C. diversus [µg/mL] | MIC (μg/mL) C. diversus [µg/mL] |
| --- | --- | --- |
| PRT1272 (DVDECVEGTDNCHIDAICQNTPRSYKCICKSGYTGDGKHCK; listed as Homo sapiens) | 50 | – |
| PRT67 (EIDLCYSDPCGANGRCRSREGGYTCECFEDFTGEHCE; listed as Homo sapiens) | – | 12.5 |
